What was measured:
MSH3 (human MutSbeta) = target: T1, MSH3 (human MutSbeta) (Homo sapiens, UniProt P20585); assay: ATP binding and cross-linking assay (MSH3 subunit); details: [32P]-ATP UV cross-linking to MSH3 subunit of MutSbeta; read-out: cross-link assay IC50 MSH3
T1 construct: Msh3(1-1137), Gene ID J04810.1
Protocol: ATP binding and cross-linking assay: Enzyme human MutSbeta (Msh2(1-934), Gene ID NP_000242.1, Msh3(1-1137), Gene ID J04810.1) was adjusted to 0.2 μM and, in experiments in the presence of 22 bp biotin-labeled DNA containing a GT-mismatch (purchased from Curia Global, TOP 5′-[…]-3′; BOT 3′-AGTAGCTAGGC - - - CGAAGTCTACC-5′-Biotin), pre-incubated with DNA at equimolar concentration for indicated time and temperature. All reagents were kept on ice. Enzyme was then incubated on ice for the indicated time with 5 nM γ-[^32P]-ATP (Hartmann Analytic, FP-301) or α-[^32P]-ATP (Perkin Elmer, NEG003H250UCSBF4 or Hartmann Analytic, FP-207) and addition of cold ATP (10 μM) or ADP (0.3 μM). The total volume was 20 μL and the samples were handled in Eppendorf reaction tubes. The assay buffer was 25 mM HEPES pH=7.5, 150 mM KCl, 5 mM MgCl2, 5 mM GSH, 0.01% Tween-20. All steps with radioactive ATP were conducted behind appropriate shielding. The samples were then placed on dry ice until they were frozen solid. […] The screen was analyzed in the imager (GE Healthcare, Fluorescent Image Analyzer, Typhoon FLA 7000, #5622514B), and the image was analyzed with imageJ software.

human MutSbeta = target: T2, human MutSbeta (Homo sapiens, UniProt P20585+P43246); assay: ADP Glo assay 2.1; format: biochemical; details: 10 μM ATP, 7 nM enzyme; buffer with 5 mM GSH, 0.2% Ovalbumin
T2 construct: Msh2(1-934), Gene ID NP_000242.1; Msh3(1-1137), Gene ID J04810.1
Protocol: (§1) ADP Glo assay 2.1: Enzyme human MutSbeta (Msh2(1-934), Gene ID NP_000242.1, Msh3(1-1137), Gene ID J04810.1) with 22 bp biotin-labeled DNA containing a GT-mismatch (purchased from Curia Global, TOP 5′-[…]-3′; BOT 3′-AGTAGCTAGGC - - - CGAAGTCTACC-5′-Biotin) was pre-incubated in assay buffer (25 mM HEPES pH=7.5, 150 mM KCl, 5 mM MgCl2, 5 mM GSH, 0.1% Pluronic F-127, 0.2% Ovalbumin) to allow formation of the enzyme-DNA complex. Plates with spotted compounds in serial dilutions in DMSO (80 nL) were filled with ATP (2 μL, 10 μM final concentration) followed by an incubation of 30 min at RT. Then, enzyme was added (2 μL, 7 nM final concentration) and the reaction was allowed to proceed for 60 min at 37° C. After the ATPase reaction, the commercially available “ADP-Glo Reagent” was added (incubate 40 min at RT) to deplete remaining ATP via the activity of […]. Subsequently, the commercially available “Kinase Detection Reagent” converted ADP to ATP via the activity of PEP and Pyruvate kinase. The ATP was then converted into light by Ultra-Glo Luciferase. The obtained luminescence was proportional to the ADP concentration generated during the initial ATPase reaction. The luminescence signal was measured with an Envision reader, raw data were analyzed towards controls (full reaction=0% inhibition; no reaction in absence of enzyme=100% inhibition) and IC50 curves were analyzed with the inhouse software Aplus.

human MutSα = target: T3, human MutSα (Homo sapiens, UniProt P43246+P52701); assay: ADP Glo assay with MutSα (2.1); format: biochemical; details: 15 nM MutSα/DNA, 30 μM ATP
T3 construct: Msh2(1-934), Gene ID NP_000242.1; Msh6(1-1360), Gene ID NP_001393725.1
T3 sequence (P43246 whole entry): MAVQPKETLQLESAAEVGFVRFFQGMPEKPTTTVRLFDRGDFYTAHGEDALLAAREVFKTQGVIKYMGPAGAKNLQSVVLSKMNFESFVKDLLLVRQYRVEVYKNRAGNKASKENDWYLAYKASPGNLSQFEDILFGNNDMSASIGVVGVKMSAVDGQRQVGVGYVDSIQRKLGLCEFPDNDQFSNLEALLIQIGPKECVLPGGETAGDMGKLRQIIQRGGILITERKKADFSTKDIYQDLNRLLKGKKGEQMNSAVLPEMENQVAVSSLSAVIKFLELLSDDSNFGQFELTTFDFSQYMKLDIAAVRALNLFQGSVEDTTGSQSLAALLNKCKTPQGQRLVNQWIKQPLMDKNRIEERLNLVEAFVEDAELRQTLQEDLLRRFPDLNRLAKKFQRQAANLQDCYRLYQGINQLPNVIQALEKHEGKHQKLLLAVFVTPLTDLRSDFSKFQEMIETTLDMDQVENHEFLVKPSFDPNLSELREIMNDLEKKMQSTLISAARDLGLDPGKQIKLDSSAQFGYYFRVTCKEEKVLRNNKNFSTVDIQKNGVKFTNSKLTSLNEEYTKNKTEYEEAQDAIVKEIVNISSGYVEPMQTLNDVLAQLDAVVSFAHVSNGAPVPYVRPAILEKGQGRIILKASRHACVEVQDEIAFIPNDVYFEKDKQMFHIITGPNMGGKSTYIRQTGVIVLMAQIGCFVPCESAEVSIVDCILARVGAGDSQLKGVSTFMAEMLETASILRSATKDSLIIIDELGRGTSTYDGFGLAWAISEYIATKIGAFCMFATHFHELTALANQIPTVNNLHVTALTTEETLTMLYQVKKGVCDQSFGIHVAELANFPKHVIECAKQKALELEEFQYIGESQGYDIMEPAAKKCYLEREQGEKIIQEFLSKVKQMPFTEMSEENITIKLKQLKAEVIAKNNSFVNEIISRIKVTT
T3 sequence (P52701 whole entry): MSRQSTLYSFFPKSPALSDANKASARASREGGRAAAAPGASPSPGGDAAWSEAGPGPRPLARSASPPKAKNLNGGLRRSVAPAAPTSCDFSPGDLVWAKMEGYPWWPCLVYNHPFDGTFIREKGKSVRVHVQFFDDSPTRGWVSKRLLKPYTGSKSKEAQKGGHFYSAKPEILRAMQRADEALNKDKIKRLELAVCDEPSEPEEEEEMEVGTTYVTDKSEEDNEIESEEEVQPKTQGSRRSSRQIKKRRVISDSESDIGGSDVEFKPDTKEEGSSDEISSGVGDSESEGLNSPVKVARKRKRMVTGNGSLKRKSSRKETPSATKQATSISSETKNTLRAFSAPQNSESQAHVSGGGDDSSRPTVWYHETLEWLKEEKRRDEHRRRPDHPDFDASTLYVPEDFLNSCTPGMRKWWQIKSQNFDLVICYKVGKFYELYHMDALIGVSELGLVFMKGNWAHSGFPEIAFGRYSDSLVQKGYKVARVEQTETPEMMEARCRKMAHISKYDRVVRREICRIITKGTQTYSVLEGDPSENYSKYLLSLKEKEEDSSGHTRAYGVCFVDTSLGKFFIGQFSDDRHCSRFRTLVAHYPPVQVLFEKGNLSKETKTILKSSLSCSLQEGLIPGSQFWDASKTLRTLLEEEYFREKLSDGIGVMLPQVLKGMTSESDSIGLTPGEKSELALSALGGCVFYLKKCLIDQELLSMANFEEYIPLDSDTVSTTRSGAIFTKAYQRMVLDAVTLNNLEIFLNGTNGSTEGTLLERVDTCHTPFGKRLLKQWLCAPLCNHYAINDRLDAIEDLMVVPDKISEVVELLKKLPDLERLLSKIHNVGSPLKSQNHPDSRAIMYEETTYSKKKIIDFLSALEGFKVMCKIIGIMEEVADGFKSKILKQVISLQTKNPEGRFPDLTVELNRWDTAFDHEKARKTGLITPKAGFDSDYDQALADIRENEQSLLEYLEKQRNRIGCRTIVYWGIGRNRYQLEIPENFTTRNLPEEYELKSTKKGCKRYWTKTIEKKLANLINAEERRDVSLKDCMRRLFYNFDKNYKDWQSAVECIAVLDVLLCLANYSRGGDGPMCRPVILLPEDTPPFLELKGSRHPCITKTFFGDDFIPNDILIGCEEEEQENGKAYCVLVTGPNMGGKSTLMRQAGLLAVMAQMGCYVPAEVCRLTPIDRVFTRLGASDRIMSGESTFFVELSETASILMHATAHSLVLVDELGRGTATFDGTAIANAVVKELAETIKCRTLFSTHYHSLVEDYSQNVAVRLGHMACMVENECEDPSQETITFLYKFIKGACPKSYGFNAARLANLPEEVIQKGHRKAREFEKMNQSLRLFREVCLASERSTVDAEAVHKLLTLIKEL
Protocol: as §1
ADP Glo assay with MutSα (2.1): The ADP Glo assay version 2.1 with the enzyme human MutSα (Msh2(1-934), Gene ID NP_000242.1, Msh6(1-1360), Gene ID NP_001393725.1) was based on the same principle and protocol steps as the MutSβ assay. A 22 bp biotin-labeled DNA containing a GT-mismatch (purchased from Curia Global, TOP 5′-[…]-3′; BOT 3′-AGTAGCTAGGC - - - CGAAGTCTACC-5′-Biotin) was used for binding to MutSα. For this assay, concentrations of enzyme and ATP were optimized to 15 nM MutSα/DNA and 30 μM ATP.

T1 sequence (P20585 whole entry): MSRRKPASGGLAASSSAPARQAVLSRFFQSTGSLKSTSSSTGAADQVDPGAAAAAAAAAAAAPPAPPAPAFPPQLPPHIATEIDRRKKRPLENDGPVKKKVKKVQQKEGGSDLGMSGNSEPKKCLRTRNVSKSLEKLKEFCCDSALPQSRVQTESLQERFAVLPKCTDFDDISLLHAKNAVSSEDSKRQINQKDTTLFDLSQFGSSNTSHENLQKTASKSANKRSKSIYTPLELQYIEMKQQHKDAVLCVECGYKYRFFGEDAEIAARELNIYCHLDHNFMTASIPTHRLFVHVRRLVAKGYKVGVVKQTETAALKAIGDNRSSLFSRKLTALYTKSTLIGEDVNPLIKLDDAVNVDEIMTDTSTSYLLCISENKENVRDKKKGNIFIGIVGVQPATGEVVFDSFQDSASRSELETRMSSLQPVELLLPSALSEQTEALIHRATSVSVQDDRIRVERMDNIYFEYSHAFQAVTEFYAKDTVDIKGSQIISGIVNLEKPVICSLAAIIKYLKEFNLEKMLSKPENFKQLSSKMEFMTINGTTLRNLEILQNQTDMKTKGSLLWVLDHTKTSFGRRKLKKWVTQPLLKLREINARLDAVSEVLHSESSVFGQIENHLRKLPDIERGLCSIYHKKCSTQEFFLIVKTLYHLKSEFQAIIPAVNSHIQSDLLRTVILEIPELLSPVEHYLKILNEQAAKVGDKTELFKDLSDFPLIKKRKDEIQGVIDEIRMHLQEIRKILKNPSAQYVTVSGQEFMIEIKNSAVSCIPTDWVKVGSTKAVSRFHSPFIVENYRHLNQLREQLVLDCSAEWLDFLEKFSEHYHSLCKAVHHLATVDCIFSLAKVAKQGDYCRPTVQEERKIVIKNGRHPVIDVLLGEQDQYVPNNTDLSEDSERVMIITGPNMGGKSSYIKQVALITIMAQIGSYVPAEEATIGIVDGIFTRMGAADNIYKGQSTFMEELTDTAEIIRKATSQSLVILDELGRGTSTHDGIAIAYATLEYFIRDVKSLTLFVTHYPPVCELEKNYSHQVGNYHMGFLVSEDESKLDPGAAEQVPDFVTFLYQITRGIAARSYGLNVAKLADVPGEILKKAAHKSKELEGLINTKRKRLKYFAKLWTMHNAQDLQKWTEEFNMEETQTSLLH
T1 sequence (P43246 whole entry partner): as the sequence (P43246 whole entry) above

SMILES	IC50 (MSH3 (human MutSbeta))	IC50 (human MutSbeta)	IC50 (human MutSα)
Cc1ccc(Nc2nc(N3CCN(C)CC3)nc3nccnc23)cc1C [Compound 2, N-(3,4-dimethylphenyl)-2-(4-methylpiperazin-1-yl)pteridin-4-amine]	5 µM	67.3 µM	135 µM
CCN1CCN(c2nc(Nc3ccc(Cl)cc3)c3nccnc3n2)CC1 [Compound 4, N-(4-Chlorophenyl)-2-(4-ethylpiperazin-1-yl)pteridin-4-amine]	9 µM	152 µM	121 µM

Source: patent US20240199624A1, “COMPOUNDS, COMPOSITIONS, AND METHODS” (CHDI Foundation, Inc., priority 2022, published 2024)
